Experimental data published in patent US20070281865A1, “MULTI-FUNCTIONAL SPACER FOR GLYCANS” (priority 2006, published 2007).
“Also recorded” adds a separate entry of the source.

Experiments:
[1] = pKa of deprotected spacer; format: physicochemical
[2] = tested on: anti-carbohydrate antibodies in sera of metastatic breast cancer patients; experiment: Sera of metastatic breast cancer patients on glycan array; format: binding, Human; conditions: sera 1:25; 9 MBC patients, 10 healthy
Description: Individual (not pooled) sera were collected from 9 patients who were diagnosed with metastatic breast cancer (MBC). Blood samples were collected before treatment, so that therapeutic intervention would not interfere with patient immune responses. One patient with breast cancer but with good prognosis (IDC, Stage 1) was also included in the study. As control, or “healthy” sera, sera from ten healthy individuals, 5 female and 5 male, with no known malignancies was collected.
(§1) Sera were diluted 1:25 with PBS containing 3% BSA, and placed on the glycan array slide in humidified chamber at room temperature for 90 min. The glycan array slide was then rinsed gently with PBS/0.05% Tween, incubated with biotinylated goat antibody against human IgG, IgM and IgA, rinsed in PBS/0.05% Tween, and incubated with streptavidin-Alexa488 fluorescent dye. Following rinses in PBS/0.05% Tween and H2O, glycan array slides were dried and scanned using the commercial DNA array scanner. […] Signal to background was typically greater 50:1 and no background subtractions were performed. Data were plotted using MS Excel software.

[3] = tested on: antibodies in serum of patients who received porcine fetal pancreas islet-like cell clusters; experiment: Sera of xenotransplant recipients on glycan array; format: binding, Human; conditions: before and 1, 6, 12 months after transplantation
Description: In 1991-1994, several diabetic (I) patients received transplantation of porcine fetal pancreas islet-like cell clusters (ICC). See, Groth, C. G. et al. Transplantation of porcine fetal pancreas to diabetic patients, The Lancet 344: 1402-4 (1994). The inventor analyzed serum from three of these patients before transplant (t=0), 1 months after (t=1), 6 months after (t=2) and 12 months after (t=3) transplant.
as §1, with “as needed” for “1:25”

[4] = tested on: Human anti-HIV 2G12 monoclonal antibody; experiment: 2G12 binding on glycan array; conditions: for binding of 2G12 antibody (in words): glycan array, 2G12 30 μg/mL pre-complexed with goat anti-human-IgG-FITC
Source text: Glycan array fabrication.
Glycan Binding Protein binding assay. […] Saliva samples were similarly handled.
Image acquisition and signal processing. […] Data were plotted using MS Excel software.

[5] = target: Concanavalin A (Con A) (Canavalia ensiformis, UniProt P02866); conditions: printing times up to 5 hours

| Molecule | serum antibodies against glycan in metastatic breast cancer patients versus healthy individuals (in words) [2] | binding of 2G12 antibody (in words) [4] | further results |
| --- | --- | --- | --- |
| C=CCCONC [Compound 1033] |  |  | pKa1 [1]: 4.8 |
| CC(=O)N[C@H]1[C@H](O[C@H]2[C@@H](O)[C@@H](CO)O[C@@H](O[C@H]3[C@H](O)[C@@H](O)C(O)O[C@@H]3CO)[C@@H]2O)O[C@H](CO)[C@@H](O)[C@@H]1O (stereo partly drawn) [LNT-2, GlcNAc-beta3-Gal-beta4-Glc-beta] | bind and higher |  |  |
| Fucose-alpha2-Gal-beta3-GalNAc-beta3-Gal-alpha-4-Gal-beta4-Glc [Globo-H] | bind and higher |  |  |
| Gal-beta3-GalNAc-beta4-[Neu5Ac-alpha3]-Gal-beta4-Glc-beta [GM1] | bind and higher |  |  |
| Galβ1-4(Fucα1-3)GlcNAcβSp [Glycan 65] |  |  | serum antibodies against glycan in xenotransplant recipients (in words) [3]: do not have antibodies; also recorded: essentially no anti-LeX antibodies are detected |
| Manα1-2Manα1-2Manα1-3(Manα1-2Manα1-3(Manα1-2Manα1-6)Manα1-6)Manβ1-4GlcNAcβ1-4GlcNAcβSp [Glycan 145] |  |  | binding of 2G12 antibody (in words) ([4]; listed as Man9): relatively weakly bound; binding of 2G12 antibody (in words) ([4]; listed as Man-9-N-glycans): smaller level of binding |
| Manα1-2Manα1-3(Manα1-2Manα1-6)ManαSp [Glycan 136] |  | strong binding | variation in maximal binding of con A [5]: less than 10%; Rel. spec. (Relative binding activity) ([4]; binding of 2G12 to mannose containing glycans in the glycan array): +++ (+++ > 25,000) |
| Manα1-2Manα1-6(Manα1-3)Manα1-6(Manα1-2Manα1-3)Manβ1-4GlcNAcβ1-4GlcNAcβSp [Glycan 144] |  | strong preference for binding |  |
| Manα1-3Manα1-6(Manα1-2Manα1-3)Manβ1-4GlcNAcβ1-4GlcNAcβSp [Glycan 140] |  | did not support binding at all |  |
| Manα1-6(Manα1-2Manα1-3)Manα1-6(Manα1-2Manα1-3)Manβ1-4GlcNAcβ1-4GlcNAcβSp [Glycan 143] |  | did not support binding at all |  |
| Manα1-6(Manα1-3)Manα1-6(Manα1-2Manα1-3)Manβ1-4GlcNAcβ1-4GlcNAcβSp [Glycan 142] |  | did not support binding at all |  |
| Neu5Acα2-6GalNAcα- | significantly higher levels |  |  |
| Neu5Gc(2-6)GalNAc | bind |  |  |
| Glycan 4: Ceruloplasmine mixture of bi and tri- and tetra-antenary N-glycans (protein, UniProt P00450 20-1065, looked up, N-glycans) Ceruloplasmin: KEKHYYIGIIETTWDYASDHGEKKLISVDTEHSNIYLQNGPDRIGRLYKKALYLQYTDETFRTTIEKPVWLGFLGPIIKAETGDKVYVHLKNLASRPYTFHSHGITYYKEHEGAIYPDNTTDFQRADDKVYPGEQYTYMLLATEEQSPGEGDGNCVTRIYHSHIDAPKDIASGLIGPLIICKKDSLDKEKEKHIDREFVVMFSVVDENFSWYLEDNIKTYCSEPEKVDKDNEDFQESNRMYSVNGYTFGSLPGLSMCAEDRVKWYLFGMGNEVDVHAAFFHGQALTNKNYRIDTINLFPATLFDAYMVAQNPGEWMLSCQNLNHLKAGLQAFFQVQECNKSSSKDNIRGKHVRHYYIAAEEIIWNYAPSGIDIFTKENLTAPGSDSAVFFEQGTTRIGGSYKKLVYREYTDASFTNRKERGPEEEHLGILGPVIWAEVGDTIRVTFHNKGAYPLSIEPIGVRFNKNNEGTYYSPNYNPQSRSVPPSASHVAPTETFTYEWTVPKEVGPTNADPVCLAKMYYSAVEPTKDIFTGLIGPMKICKKGSLHANGRQKDVDKEFYLFPTVFDENESLLLEDNIRMFTTAPDQVDKEDEDFQESNKMHSMNGFMYGNQPGLTMCKGDSVVWYLFSAGNEADVHGIYFSGNTYLWRGERRDTANLFPQTSLTLHMWPDTEGTFNVECLTTDHYTGGMKQKYTVNQCRRQSEDSTFYLGERTYYIAAVEVEWDYSPQREWEKELHHLQEQNVSNAFLDKGEFYIGSKYKKVVYRQYTDSTFRVPVERKAEEEHLGILGPQLHADVGDKVKIIFKNMATRPYSIHAHGVQTESSTVTPTLPGETLTYVWKIPERSGAGTEDSACIPWAYYSTVDQVKDLYSGLIGPLIVCRRPYLKVFNPRRKLEFALLFLVFDENESWYLDDNIKTYSDHPEKVNKDDEEFIESNKMHAINGRMFGNLQGLTMHVGDEVNWYLMGMGNEIDLHTVHFHGHSFQYKHRGVYSSDVFDIFPGTYQTLEMFPRTPGIWLLHCHVTDHIHAGMETTYTVLQNEDTKSG | bind and significantly higher levels |  |  |
